Assay results: US9801856B2, “Composition of a 5-HT2A serotonin receptor modulator useful for the treatment of disorders related thereto” (Arena Pharmaceuticals, Inc., priority 2008, dated 2017)
“Also recorded” adds a separate entry of the source. Values belong to the compound of their own block, whether it stands above or below them.

What was measured:
[1] = Methyl cellulose optimization: Form I to Form II conversion in water pastes (PXRD); assay type: physicochemical
Description: In a small scintillation vial, 152.13 mg of micronized APD125 Form I, was spiked with sufficient deionized water to make a paste; the weight of the water added, 844.60 mg was recorded, and the resulting mixture was stirred using a spatula to obtain a paste. The resulting sample, post-collection of an initial PXRD pattern, was capped, wrapped in tinfoil and stored at 40° C. until the next day, when a second PXRD pattern was obtained.
Using another small scintillation vial, 2.1183 g of micronized APD125 Form I, was mixed with 3.3619 g of a 0.5% w/v methyl cellulose to obtain a paste, which was immediately sampled for PXRD analysis to verify starting APD125 solid-state form, post-methyl cellulose addition. The remaining sample in the scintillation vial was split into two portions, placed in capped, parafilm-wrapped scintillation vials, which were then wrapped in tinfoil and stored at 40° C. and room temperature, respectively. […]
APD125 micronized Form I/PVP (1:8) blend, weighing 3.0081 g and containing 0.5% w/w methyl cellulose, was mixed with 3.71277 g of water to form a paste. After sampling the paste for an initial PXRD pattern, the remaining paste was split into two portions, placed in capped, parafilm-wrapped scintillation vials, which were then wrapped in tinfoil and stored at 40° C. and room temperature, respectively. PXRD patterns were collected at initial (t=0), 1-day, 7-day and 21-day time points.
For each blend, materials were dispensed (minus magnesium stearate) into a glass vial and blended for about 5 minutes. Magnesium stearate was added and the mixture was blended an additional 2 minutes. The final blend was compacted into standard round concave tablets ( 5/16″ diameter) with a total tablet weight of 200 mg and hardness of 10 kp using a Carver press. For each batch of tablets, several were crushed using a mortar and pestle to obtain a fine powder, from which a small sample was taken for PXRD analysis to confirm the initial APD125 polymorphic form. The remaining powder was weighed into a Qorpak® bottle, and ca. 50% w/w deionized water was added. The resulting mixture was stirred using a micro-spatula to wet the powder and form a paste. A Teflon® lid was screwed on tightly, and the prepared samples were stored in a 40° C. oven.
(§1) PXRD measurements were obtained using a Philips (PANalytical) X'Pert PRO theta/theta diffractometer (EQ 0233) equipped with an X'Celerator RTMS detector and utilizing copper Kα radiation, operating at 45 kV and 40 mA. The instrument radius was 239.5 mm, the mask filter was 20 mm, the soller slit was 0.04 radians, and a nickel filter and sample spinning were used during data acquisition. The application and instrument control software used were X'Pert Data Collector®, version 2.0c and XPERT-PRO®, version 1.6, respectively. The API-based paste samples were scanned from 5° to 40° 2θ in continuous mode, using a step size of 0.0167° 2θ and a counting time of 40.005 seconds. The tablet granulation samples were scanned from 2° to 15° 2θ in continuous mode, using a step size of 0.0167° 2θ and a counting time of 1063.625 s.

[2] = Effect of milling and compression upon APD125 Form I (PXRD); assay type: physicochemical
Description: Micronized APD125 Form I, was ground using a mortar and pestle, with samples withdrawn at 1-min, 5-min and 10-min time points for PXRD analyses to evaluate the impact of grinding upon the solid-state form of APD125 Form I. PXRD patterns were obtained pre- and post-milling. Additionally, micronized APD125 Form I, was compressed at 2 kp, 5 kp and 10 kp for 1 min per sample using a Carver press. The samples were then removed from the Carver press and lightly broken up using a mortar and pestle, prior to PXRD analysis to evaluate the impact of compression upon the solid-state form of APD125 Form I. PXRD patterns were obtained pre- and post-compression.
as §1, with “The” for “The API-based paste”, “2θ.” for “2θ and a counting time of 40.005 seconds. The tablet granulation samples were scanned from 2° to 15° 2θ in continuous mode, using a step size of 0.0167° 2θ and a counting time of 1063.625 s.”

[3] = target: T1, 5-HT2A serotonin receptor (Homo sapiens, UniProt P28223); experiment: 5-HT2A serotonin receptor inverse agonist activity; assay type: biochemical
T1 sequence (P28223 whole entry): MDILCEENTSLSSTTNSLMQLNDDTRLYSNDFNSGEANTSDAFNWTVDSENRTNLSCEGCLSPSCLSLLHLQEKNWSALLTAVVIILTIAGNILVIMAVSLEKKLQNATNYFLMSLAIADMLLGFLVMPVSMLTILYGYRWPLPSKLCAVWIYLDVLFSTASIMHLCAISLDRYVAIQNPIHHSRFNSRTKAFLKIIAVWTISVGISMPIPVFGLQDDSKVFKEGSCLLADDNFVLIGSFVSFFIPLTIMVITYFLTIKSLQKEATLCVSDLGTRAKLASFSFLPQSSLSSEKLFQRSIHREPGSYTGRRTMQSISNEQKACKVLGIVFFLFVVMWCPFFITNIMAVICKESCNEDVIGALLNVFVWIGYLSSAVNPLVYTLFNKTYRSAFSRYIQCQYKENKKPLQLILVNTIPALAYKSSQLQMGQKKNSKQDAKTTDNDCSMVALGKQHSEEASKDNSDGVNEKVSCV

[4] = Stability of APD125 in solution; assay type: physicochemical; details: in solution at 25° C.
[5] = target: T1, 5-HT2A serotonin receptor; experiment: Afternoon nap model of insomnia in normal volunteers; assay type: in vivo, humans
[6] = target: T1, 5-HT2A serotonin receptor; experiment: Phase 1 trials: waking EEG; assay type: in vivo, humans
[7] = Aqueous solubility of APD125; assay type: physicochemical
[8] = target: T1, 5-HT2A serotonin receptor; experiment: Phase 2 trial: sleep maintenance versus placebo; assay type: in vivo, humans
5-HT2 receptor = details: glaucoma patients; cited from earlier work
5-HT2A [9] = target: T2, 5-HT2A (Rattus norvegicus, UniProt P14842); details: in vivo; cited from earlier work
T2 sequence (P14842 whole entry): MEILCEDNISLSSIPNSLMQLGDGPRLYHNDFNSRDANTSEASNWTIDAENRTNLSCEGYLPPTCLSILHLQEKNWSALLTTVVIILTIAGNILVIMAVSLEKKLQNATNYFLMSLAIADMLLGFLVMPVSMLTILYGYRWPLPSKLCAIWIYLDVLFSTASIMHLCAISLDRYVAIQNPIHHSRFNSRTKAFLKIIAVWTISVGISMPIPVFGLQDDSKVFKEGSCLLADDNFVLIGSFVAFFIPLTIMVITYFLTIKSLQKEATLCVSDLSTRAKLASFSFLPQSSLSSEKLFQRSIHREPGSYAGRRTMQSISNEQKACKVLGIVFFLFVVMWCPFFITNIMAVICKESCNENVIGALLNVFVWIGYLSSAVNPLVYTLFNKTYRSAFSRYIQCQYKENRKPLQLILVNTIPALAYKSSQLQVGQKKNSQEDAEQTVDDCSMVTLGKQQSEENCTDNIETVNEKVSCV

5-HT2A [10] = target: T2, 5-HT2A; set-up: host or cells: diabetic rats, in vivo; details: spontaneously hypertensive rats; cited from earlier work
JC virus = details: cited from earlier work
[11] = target: T1, 5-HT2A serotonin receptor; details: cited from earlier work
5-HT2A [12] = target: T3, 5-HT2A (Homo sapiens, UniProt P28223); set-up: host or cells: patients, in vivo; details: 24 months of treatment; cited from earlier work
T3 sequence (P28223 whole entry): as the sequence (P28223 whole entry) above

5-HT2A [13] = target: T2, 5-HT2A; set-up: host or cells: diabetic rats, in vivo; details: rats, cited from earlier work
5-HT2A [14] = target: T3, 5-HT2A; set-up: host or cells: human patients, in vivo; details: humans, lumbar disc herniation; cited from earlier work

polymorphic form by PXRD ([1]; aqueous 0.5% w/w methyl cellulose at 40° C. after 10 days (FIG. 8, text)): no evidence of conversion to Form II | polymorphic form by PXRD ([1]; aqueous 0.5% w/w methyl cellulose, room temperature and 40° C. after 16 days (FIG. 8 legend)): substantially converted to Form II | polymorphic form by PXRD ([1]; paste in water alone at 40° C.): converted to Form II within 24 hours | polymorphic form by PXRD ([1]; paste in water alone at room temperature and 40° C. after 24 h (FIG. 9 legend)): substantially converted to Form II | polymorphic form by PXRD ([1]; suspended in aqueous 0.5% w/w methyl cellulose, 21 days at room temperature): did not convert to Form II
SMILES: COc1ccc(NC(=O)Nc2ccc(F)cc2F)cc1-c1c(Br)cnn1C [APD125 Form I, 1-[3-(4-bromo-2-methyl-2H-pyrazol-3-yl)-4-methoxy-phenyl]-3-(2,4-difluoro-phenyl)-urea]
PXRD pattern after compression ([2]; compressed at 2 kp, 5 kp and 10 kp): all substantially comprise Form I; also recorded: consistent with APD125 Form I | PXRD pattern after grinding ([2]; mortar and pestle for 1 minute, 5 minutes and 10 minutes, listed as micronized APD125 Form I): all substantially comprise Form I; also recorded: No significant changes in the PXRD patterns were observed

stability in solution [4]: somewhat labile | REM sleep ([5]; human, in vivo): at the expense of REM sleep | microarousals, number of sleep stage shifts and number of awakenings after sleep onset ([5]; human, in vivo): decreased | sleep onset latency ([5]; human, in vivo): not decreased | dose of maximal effects on waking EEG [6]: 40 to 80 mg | effects on waking EEG [6]: vigilance-lowering effects | time of peak effects after dosing ([6]; waking EEG): 2 to 4 h | solubility ([7]; aqueous buffer, phosphate buffer (about pH 7)): ≤ 10 µg/mL | solubility ([7]; deionized water, water): ≤ 10 µg/mL | solubility ([7]; saline (about 0.9% NaCl solution), saline or isotonic): ≤ 10 µg/mL | solubility ([7]; simulated gastric fluid, 0.01 N HCl (about pH 2)): ≤ 10 µg/mL | measurements of sleep maintenance ([8]; compared to placebo): statistically significant improvements
SMILES: COc1ccc(NC(=O)Nc2ccc(F)cc2F)cc1-c1c(Br)cnn1C [APD125, 1-[3-(4-bromo-2-methyl-2H-pyrazol-3-yl)-4-methoxy-phenyl]-3-(2,4-difluoro-phenyl)-urea]
activity at the 5-HT2A serotonin receptor [3]: potent and selective 5-HT2A serotonin receptor inverse agonist | slow wave sleep and associated parameters ([5]; primarily during the early part of sleep): increased slow wave sleep and associated parameters in a dose-dependent manner | next day cognitive effects ([8]; in vivo): without any limiting next day cognitive effects

SMILES: O=C(c1ccc(F)cc1)C1CCN(CCn2c(=O)[nH]c3ccccc3c2=O)CC1 [ketanserin]
IOP (5-HT2 receptor): significantly lower IOP | protection during heatstroke (5-HT2A [9]): protect against circulatory shocks, intracranial hypertension and cerebral ischemia during heatstroke | blood pressure (5-HT2A [10]): stabilize blood pressure | JC virus infection of human glial cells (JC virus): inhibited | activity at 5-HT2A [11]: inverse agonist activity

SMILES: Cc1nc2sccn2c(=O)c1CCN1CCC(=C(c2ccc(F)cc2)c2ccc(F)cc2)CC1 [ritanserin]
JC virus infection of human glial cells (JC virus): inhibited | activity at 5-HT2A [11]: inverse agonist activity

SMILES: COc1cccc(CCc2ccccc2OCC(CN(C)C)OC(=O)CCC(=O)O)c1 (stereo not shown) [sarpogrelate]
IOP (5-HT2 receptor): significantly lower IOP | urinary albumin excretion level (5-HT2A [12]): significantly reduced | thermal induced pain (5-HT2A [13]; intraperitoneal administration): significant analgesic effect | inflammatory pain (5-HT2A [13]; intrathecal or intraperitoneal administration): significant analgesic effect | lower back pain, leg pain and numbness associated with sciatica (5-HT2A [14]): effective treatment
